Reference: PubChem BioAssay AID248 (DTP/NCI, 2004)
Where “and” joins values, the source holds several entries; their conditions need not be identical. Identical values can stand only once. Toxic doses and inconclusive results are not listed.

Tested on: L1210 leukemia ip in BDF1 mice, survival T/C
Experiment: NCI In Vivo Anticancer Drug Screen. Data for tumor model L1210 Leukemia (intraperitoneal) in B6D2F1 (BDF1) mice
Settings: endpoint: mean survival time, higher = longer survival
How it was run: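 Read-out is survival time, reported as the treated-group measurement over the vehicle-control measurement.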

[1] = dose: 100.0 mg/kg/injection, schedule: Q04DX003 (ip), vehicle: other
[2] = dose: 200.0 mg/kg/injection, schedule: Q04DX003 (ip), vehicle: other
[3] = dose: 400.0 mg/kg/injection, schedule: Q04DX003 (ip), vehicle: other
[4] = dose: 50.0 mg/kg/injection, schedule: Q01DX009 (ip), vehicle: saline with Tween-80
[5] = dose: 100.0 mg/kg/injection, schedule: Q01DX009 (ip), vehicle: saline with Tween-80
[6] = dose: 200.0 mg/kg/injection, schedule: Q01DX009 (ip), vehicle: saline with Tween-80
[7] = dose: 100.0 mg/kg/injection, schedule: Q01DX001 (ip), vehicle: saline
[8] = dose: 200.0 mg/kg/injection, schedule: Q01DX001 (ip), vehicle: saline
[9] = dose: 400.0 mg/kg/injection, schedule: Q01DX001 (ip), vehicle: saline
[10] = dose: 25.0 mg/kg/injection, schedule: Q01DX009 (ip), vehicle: Klucel (hydroxypropylcellulose) (HPC)
[11] = dose: 50.0 mg/kg/injection, schedule: Q01DX009 (ip), vehicle: Klucel (hydroxypropylcellulose) (HPC)
[12] = dose: 100.0 mg/kg/injection, schedule: Q01DX009 (ip), vehicle: Klucel (hydroxypropylcellulose) (HPC)
[13] = dose: 100.0 mg/kg/injection, schedule: Q01DX009 (ip), vehicle: saline
[14] = dose: 200.0 mg/kg/injection, schedule: Q01DX009 (ip), vehicle: saline
[15] = dose: 400.0 mg/kg/injection, schedule: Q01DX009 (ip), vehicle: saline
[16] = dose: 200.0 mg/kg/injection, schedule: Q01DX009 (ip), vehicle: Klucel (hydroxypropylcellulose) (HPC)
[17] = dose: 400.0 mg/kg/injection, schedule: Q01DX009 (ip), vehicle: Klucel (hydroxypropylcellulose) (HPC)

Cc1c(CNc2ccc(C(=O)NC(CC(=O)O)CC(=O)O)cc2)ccc2nc(N)nc(N)c12
T/C (dose: 0.11 mg/kg/injection, schedule: Q01DX009 (ip), vehicle: saline): 97 % of control
T/C (dose: 0.15 mg/kg/injection, schedule: Q01DX009 (ip), vehicle: saline): 107 % of control
T/C (dose: 0.17 mg/kg/injection, schedule: Q01DX009 (ip), vehicle: saline): 178 % of control
T/C (dose: 0.27 mg/kg/injection, schedule: Q01DX009 (ip), vehicle: saline): 161 % of control
T/C (dose: 0.62 mg/kg/injection, schedule: Q01DX009 (ip), vehicle: saline): 156 % of control and 187 % of control
T/C (dose: 1.25 mg/kg/injection, schedule: Q01DX009 (ip), vehicle: saline): 112 % of control and 121 % of control
T/C (dose: 2.5 mg/kg/injection, schedule: Q04DX003 (ip), vehicle: saline): 175 % of control
T/C (dose: 4.4 mg/kg/injection, schedule: Q01DX009 (ip), vehicle: other): 91 % of control
T/C (dose: 10.0 mg/kg/injection, schedule: Q01DX001 (ip), vehicle: other): 173 % of control
T/C (dose: 10.0 mg/kg/injection, schedule: Q01DX001 (ip), vehicle: saline): 168 % of control
T/C (dose: 10.0 mg/kg/injection, schedule: Q04DX003 (ip), vehicle: saline): 102 % of control
T/C (dose: 20.0 mg/kg/injection, schedule: Q01DX001 (ip), vehicle: saline): 151 % of control

O=C(COc1cccc(Cl)c1)Nc1ccccc1S(=O)(=O)F
T/C [1]: 89 % of control
T/C [2]: 87 % of control
T/C [3]: 98 % of control

C/C=C/C1CC2CC(C1C)C2(C)C (stereo unspecified)
T/C [4]: 97 % of control
T/C [5]: 97 % of control
T/C [6]: 101 % of control

O=C1C=C2CCN(C(=O)c3ccccc3)CC2O1 (stereo unspecified)
T/C [7]: 100 % of control
T/C [8]: 105 % of control
T/C [9]: 100 % of control

Cc1ccc(S(=O)(=O)N(Cl)Cl)cc1
T/C (dose: 6.25 mg/kg/injection, schedule: Q01DX009 (ip), vehicle: Klucel (hydroxypropylcellulose) (HPC)): 115 % of control
T/C (dose: 6.25 mg/kg/injection, schedule: Q04DX003 (ip), vehicle: Klucel (hydroxypropylcellulose) (HPC)): 94 % of control
T/C (dose: 12.5 mg/kg/injection, schedule: Q04DX003 (ip), vehicle: Klucel (hydroxypropylcellulose) (HPC)): 98 % of control
T/C [10]: 94 % of control
T/C (dose: 25.0 mg/kg/injection, schedule: Q04DX003 (ip), vehicle: Klucel (hydroxypropylcellulose) (HPC)): 102 % of control
T/C [7]: 110 % of control
T/C [8]: 101 % of control
T/C [9]: 108 % of control

CC(=O)OCCCC/C(=C/c1cc2ccccc2c2ccccc12)[N+](=O)[O-]
T/C (dose: 100.0 mg/kg/injection, schedule: Q01DX009 (ip), vehicle: carboxymethylcellulose (CMC)): 100 % of control
T/C (dose: 266.0 mg/kg/injection, schedule: Q01DX009 (ip), vehicle: carboxymethylcellulose (CMC)): 104 % of control
T/C (dose: 400.0 mg/kg/injection, schedule: Q01DX009 (ip), vehicle: carboxymethylcellulose (CMC)): 104 % of control
T/C (dose: 600.0 mg/kg/injection, schedule: Q01DX009 (ip), vehicle: carboxymethylcellulose (CMC)): 100 % of control

CCCCCCCCCCCCn1cnc2c(=S)nc[nH]c21
T/C (dose: 12.5 mg/kg/injection, schedule: Q01DX005 (ip), vehicle: other): 106 % of control
T/C (dose: 25.0 mg/kg/injection, schedule: Q01DX005 (ip), vehicle: other): 101 % of control
T/C (dose: 50.0 mg/kg/injection, schedule: Q01DX005 (ip), vehicle: other): 100 % of control
T/C (dose: 100.0 mg/kg/injection, schedule: Q01DX005 (ip), vehicle: other): 106 % of control
T/C (dose: 200.0 mg/kg/injection, schedule: Q01DX005 (ip), vehicle: other): 89 % of control

[O-][n+]1onc2ccc(Cl)cc21
T/C [10]: 101 % of control
T/C [11]: 98 % of control
T/C [12]: 95 % of control

CNc1c(Cl)cc(/C=C2\C=Cc3ccccc32)cc1Cl
T/C (dose: 100.0 mg/kg/injection, schedule: Q01DX001 (ip), vehicle: carboxymethylcellulose (CMC)): 101 % of control
T/C (dose: 200.0 mg/kg/injection, schedule: Q01DX001 (ip), vehicle: carboxymethylcellulose (CMC)): 101 % of control
T/C (dose: 400.0 mg/kg/injection, schedule: Q01DX001 (ip), vehicle: carboxymethylcellulose (CMC)): 95 % of control

COc1cc2c(cc1OC)C(C(C)C)NCC2O (stereo unspecified)
T/C [7]: 98 % of control
T/C [8]: 96 % of control

NCCc1cc(O)c(O)cc1O
T/C (dose: 25.0 mg/kg/injection, schedule: Q01DX009 (ip), vehicle: saline): 102 % of control and 107 % of control
T/C (dose: 50.0 mg/kg/injection, schedule: Q01DX009 (ip), vehicle: saline): 93 % of control and 103 % of control
T/C [13]: 93 % of control and 91 % of control
T/C [14]: 88 % of control
T/C [15]: 86 % of control

Clc1ccccc1-n1cc(-c2ccccc2)nn1
T/C (dose: 100.0 mg/kg/injection, schedule: Q04DX002 (ip), vehicle: Klucel (hydroxypropylcellulose) (HPC)): 114 % of control
T/C (dose: 200.0 mg/kg/injection, schedule: Q04DX002 (ip), vehicle: Klucel (hydroxypropylcellulose) (HPC)): 108 % of control
T/C (dose: 400.0 mg/kg/injection, schedule: Q04DX002 (ip), vehicle: Klucel (hydroxypropylcellulose) (HPC)): 108 % of control

O=C(CC(O)(C(F)(F)F)C(F)(F)F)c1ccc(Br)cc1
T/C [1]: 98 % of control
T/C [2]: 106 % of control
T/C [3]: 93 % of control

COC(=N)c1cccc(O)c1
T/C [13]: 99 % of control
T/C [14]: 97 % of control
T/C [15]: 99 % of control

C/C=C/C=C/C(=O)NO
T/C [11]: 93 % of control
T/C (dose: 62.0 mg/kg/injection, schedule: Q03HX024 (ip), vehicle: saline): 101 % of control
T/C [12]: 102 % of control
T/C (dose: 125.0 mg/kg/injection, schedule: Q03HX024 (ip), vehicle: saline): 94 % of control
T/C (dose: 177.0 mg/kg/injection, schedule: Q01DX009 (ip), vehicle: carboxymethylcellulose (CMC)): 117 % of control
T/C (dose: 177.0 mg/kg/injection, schedule: Q01DX009 (ip), vehicle: saline): 94 % of control
T/C [16]: 104 % of control
T/C (dose: 266.0 mg/kg/injection, schedule: Q01DX009 (ip), vehicle: saline): 117 % of control
T/C [15]: 121 % of control
T/C (dose: 600.0 mg/kg/injection, schedule: Q01DX009 (ip), vehicle: saline): 165 % of control

COc1ccccc1NC(=O)Nc1ccccc1OC
T/C [12]: 98 % of control
T/C (dose: 100.0 mg/kg/injection, schedule: Q04DX003 (ip), vehicle: Klucel (hydroxypropylcellulose) (HPC)): 97 % of control
T/C [16]: 104 % of control
T/C (dose: 200.0 mg/kg/injection, schedule: Q04DX003 (ip), vehicle: Klucel (hydroxypropylcellulose) (HPC)): 97 % of control
T/C [17]: 103 % of control
T/C (dose: 400.0 mg/kg/injection, schedule: Q04DX003 (ip), vehicle: Klucel (hydroxypropylcellulose) (HPC)): 94 % of control

Cc1cc(N=[N+]([O-])c2ccc(N)c(C)c2)ccc1N
T/C [7]: 95 % of control
T/C [8]: 91 % of control
T/C [14]: 96 % of control
T/C [9]: 93 % of control
T/C [15]: 96 % of control

S=c1cc(-c2ccccc2)ss1
T/C [5]: 98 % of control
T/C (dose: 100.0 mg/kg/injection, schedule: Q04DX003 (ip), vehicle: saline with Tween-80): 93 % of control and 102 % of control
T/C [6]: 89 % of control
T/C (dose: 200.0 mg/kg/injection, schedule: Q04DX003 (ip), vehicle: saline with Tween-80): 91 % of control and 100 % of control
T/C (dose: 400.0 mg/kg/injection, schedule: Q01DX009 (ip), vehicle: saline with Tween-80): 96 % of control
T/C (dose: 400.0 mg/kg/injection, schedule: Q04DX003 (ip), vehicle: saline with Tween-80): 96 % of control and 91 % of control

O=C(Nc1ccc(Cl)c(Cl)c1)Sc1ccc(Cl)cc1
T/C (dose: 25.0 mg/kg/injection, schedule: Q01DX009 (ip), vehicle: saline with Tween-80): 100 % of control
T/C [4]: 103 % of control
T/C [5]: 101 % of control

CC(=O)c1cccc(NC(=O)N2CCCCC2C)c1 (stereo unspecified)
T/C [12]: 111 % of control
T/C [16]: 112 % of control
T/C [17]: 103 % of control

CN=C(C)C1=C(O)C(CC(=O)OC)N(C)C1=O (stereo unspecified)
T/C (dose: 100.0 mg/kg/injection, schedule: Q04DX003 (ip), vehicle: saline): 103 % of control
T/C (dose: 200.0 mg/kg/injection, schedule: Q04DX003 (ip), vehicle: saline): 102 % of control
T/C (dose: 400.0 mg/kg/injection, schedule: Q04DX003 (ip), vehicle: saline): 96 % of control
